Reference: paper PMC11111691, “Cystine-knot peptide inhibitors of HTRA1 bind to a cryptic pocket within the active site region” (Nature Communications, 2024)
Positions of bridges follow the written chain, without caps; N, C: chain ends. Non-standard residues stand in square brackets, D forms with d. Residues, ends and D or L forms follow the SMILES beside them. Tyr(3-Cl) = N[C@@H](Cc1ccc(O)c(Cl)c1)C(=O)O

Target: T1, HTRA1^FL (Homo sapiens, UniProt Q92743)
T1 construct: Human full-length HTRA1 (HTRA1^FL, Q23-P480); made in house; host or cells: Trichoplusia ni cells
Experiment: HTRA1^FL enzyme inhibition assay with synthetic substrate H2-OPT
Assay type: biochemical
Method: Assays with the fluorescence-quenched synthetic substrate Mca-IRRVSYSFK(Dnp)K (H2-OPT)[38],[60] were carried out essentially as described. CKP stock solutions in DMSO were diluted in TNC buffer (dilution series for IC50 determinations, or final concentration of 2 µM for selectivity assay or as indicated for HTRA1/4 mutants) and incubated with enzymes in 96-well black optical bottom plates for 60 min at 37 °C. For selectivity experiments we used the 7mer-ABP as inhibitor, which was incubated with the proteases for 15 min at 37 °C. A 10 mM stock solution of H2-OPT in DMSO was diluted with water, prewarmed at 37 °C and then added to the CKP-enzyme mixtures. The final concentrations in the reaction mixtures were: 1 nM HTRA1^FL, 3 nM HTRA1^PD/PDZ, 1 nM HTRA1^PD, 1 nM HTRA2^PD/PDZ, 3 nM HTRA3^FL, 60 nM HTRA3^PD/PDZ, 6 nM HTRA4^FL, 1 µM HTRA4^PD/PDZ, 1 nM mouse HTRA1^PD, 25 nM HTRA1^PD-A202Y, 1 µM HTRA4^PD/PDZ-Y200A, 0.5 mM 7mer-ABP, 5 µM H2-OPT, and 0.25% DMSO. The kinetics of substrate cleavage was measured at 37 °C on a SpectraMax M5 microplate reader with excitation of 328 nm and emission of 393 nm. The determined initial rates of cleavage were expressed as percent of control (DMSO control) after subtracting the baseline rates (without enzyme). IC50 values were determined by Sigmoidal 4PL modeling of multiple data points from serial dilutions of CKPs using Prism 9 software (GraphPad). For selectivity assays with HTRA1-4^PD/PDZ constructs, the specific activities of the enzymes and enzyme:CKP inhibitor ratios were as follows: HTRA1^PD/PDZ, 12560 mRFU/min/nM – 1:667; HTRA2^PD/PDZ, 32300 mRFU/min/nM – 1:2000; HTRA3^PD/PDZ, 962 mRFU/min/nM – 1:33; HTRA4^PD/PDZ, 18 mRFU/min/nM – 1:2.

T1 sequence (Q92743 23-480): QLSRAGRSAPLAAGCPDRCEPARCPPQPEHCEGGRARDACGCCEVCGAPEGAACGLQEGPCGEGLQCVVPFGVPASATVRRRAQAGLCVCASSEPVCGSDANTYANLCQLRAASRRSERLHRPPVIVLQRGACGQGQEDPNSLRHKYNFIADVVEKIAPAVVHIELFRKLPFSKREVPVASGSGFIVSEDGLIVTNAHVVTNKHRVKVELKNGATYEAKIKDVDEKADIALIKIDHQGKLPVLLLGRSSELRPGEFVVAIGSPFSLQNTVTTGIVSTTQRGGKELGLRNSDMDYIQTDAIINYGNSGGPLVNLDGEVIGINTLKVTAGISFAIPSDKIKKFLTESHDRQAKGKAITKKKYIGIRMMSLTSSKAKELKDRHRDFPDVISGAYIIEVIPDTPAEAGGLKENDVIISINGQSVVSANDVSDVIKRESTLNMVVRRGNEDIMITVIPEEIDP

For `CC[C@H](C)[C@H](NC(=O)[C@H](CCC(N)=O)NC(=O)[C@H](CCCNC(=N)N)NC(=O)[C@H](CC(C)C)NC(=O)CNC(=O)[C@H](Cc1c[nH]c2ccccc12)NC(=O)CNC(=O)[C@@H]1CSSC[C@@H]2NC(=O)[C@H](CC(=O)O)NC(=O)[C@H](CC(=O)O)NC(=O)[C@H](Cc3c[nH]cn3)NC(=O)[C@H]([C@@H](C)O)NC(=O)[C@H](CCC(=O)O)NC(=O)[C@@H]3CSSC[C@H](NC(=O)[C@H]([C@@H](C)O)NC(=O)[C@H](CCC(N)=O)NC(=O)[C@H](CSSC[C@H](NC(=O)[C@@H](NC(=O)[C@@H]4CCCN4C(=O)[C@H](CC(=O)O)NC(=O)[C@H](C)NC(=O)[C@@H](N)Cc4c[nH]cn4)[C@@H](C)CC)C(=O)N[C@@H](CC(N)=O)C(=O)N[C@@H](CCCCN)C(=O)N4CCC[C@H]4C(=O)N3)NC(=O)[C@H](Cc3ccccc3)NC(=O)[C@H](Cc3c[nH]c4ccccc34)NC(=O)[C@H](C)NC(=O)CNC(=O)[C@H](CO)NC2=O)C(=O)N[C@@H](Cc2ccc(O)cc2)C(=O)N[C@@H](Cc2ccc(O)cc2)C(=O)N[C@@H](C)C(=O)N[C@@H]([C@@H](C)O)C(=O)N[C@@H](Cc2c[nH]c3ccccc23)C(=O)N[C@@H](CO)C(=O)N1)C(=O)N[C@@H](CC(=O)O)C(N)=O` [1A8.K11E] (H-HADPICNKPCETHDDCSGAWFCQTCYYATWSCGWGLRQID-NH2; disulfide 6-22, 10-25, 16-32), the IC50 was 1 ± 0.3 nM.

With `CC[C@H](C)[C@H](NC(=O)[C@H](CCC(N)=O)NC(=O)[C@H](CCCNC(=N)N)NC(=O)[C@H](CC(C)C)NC(=O)CNC(=O)[C@H](Cc1c[nH]c2ccccc12)NC(=O)CNC(=O)[C@@H]1CSSC[C@@H]2NC(=O)[C@H](CC(=O)O)NC(=O)[C@H](CC(=O)O)NC(=O)[C@H](Cc3c[nH]cn3)NC(=O)[C@H]([C@@H](C)O)NC(=O)[C@H](CCCCN)NC(=O)[C@@H]3CSSC[C@H](NC(=O)[C@H]([C@@H](C)O)NC(=O)[C@H](CCC(N)=O)NC(=O)[C@H](CSSC[C@H](NC(=O)[C@@H](NC(=O)[C@@H]4CCCN4C(=O)[C@H](CC(=O)O)NC(=O)[C@H](C)NC(=O)[C@@H](N)Cc4c[nH]cn4)[C@@H](C)CC)C(=O)NCC(=O)N[C@@H](CO)C(=O)N[C@@H](CCC(N)=O)C(=O)N3)NC(=O)[C@H](Cc3ccccc3)NC(=O)[C@H](Cc3c[nH]c4ccccc34)NC(=O)[C@H](C)NC(=O)CNC(=O)[C@H](CO)NC2=O)C(=O)N[C@@H](Cc2ccc(O)cc2)C(=O)N[C@@H](Cc2ccc(O)cc2)C(=O)N[C@@H](C)C(=O)N[C@@H]([C@@H](C)O)C(=O)N[C@@H](Cc2c[nH]c3ccccc23)C(=O)N[C@@H](CO)C(=O)N1)C(=O)N[C@@H](CC(=O)O)C(N)=O` [1A8.L1.1] (H-HADPICGSQCKTHDDCSGAWFCQTCYYATWSCGWGLRQID-NH2; disulfide 6-22, 10-25, 16-32) the IC50 was 2.3 ± 0.1 nM.

With `CC[C@H](C)[C@H](NC(=O)[C@H](CCC(N)=O)NC(=O)[C@H](CCCNC(=N)N)NC(=O)[C@H](CC(C)C)NC(=O)CNC(=O)[C@H](Cc1c[nH]c2ccccc12)NC(=O)CNC(=O)[C@@H]1CSSC[C@@H]2NC(=O)[C@H](CC(=O)O)NC(=O)[C@H](CC(=O)O)NC(=O)[C@H](Cc3c[nH]cn3)NC(=O)[C@H]([C@@H](C)O)NC(=O)[C@H](CCCCN)NC(=O)[C@@H]3CSSC[C@H](NC(=O)[C@H]([C@@H](C)O)NC(=O)[C@H](CCC(N)=O)NC(=O)[C@H](CSSC[C@H](NC(=O)[C@@H](NC(=O)[C@@H]4CCCN4C(=O)[C@H](CC(=O)O)NC(=O)[C@H](C)NC(=O)[C@@H](N)Cc4c[nH]cn4)[C@@H](C)CC)C(=O)NCC(=O)N[C@@H](Cc4c[nH]cn4)C(=O)N[C@@H](CCC(N)=O)C(=O)N3)NC(=O)[C@H](Cc3ccccc3)NC(=O)[C@H](Cc3c[nH]c4ccccc34)NC(=O)[C@H](C)NC(=O)CNC(=O)[C@H](CO)NC2=O)C(=O)N[C@@H](Cc2ccc(O)cc2)C(=O)N[C@@H](Cc2ccc(O)cc2)C(=O)N[C@@H](C)C(=O)N[C@@H]([C@@H](C)O)C(=O)N[C@@H](Cc2c[nH]c3ccccc23)C(=O)N[C@@H](CO)C(=O)N1)C(=O)N[C@@H](CC(=O)O)C(N)=O` [1A8.L1.2] (H-HADPICGHQCKTHDDCSGAWFCQTCYYATWSCGWGLRQID-NH2; disulfide 6-22, 10-25, 16-32) the IC50 was 3.2 ± 0.1 nM.

With `CC[C@H](C)[C@H](NC(=O)[C@H](CCC(N)=O)NC(=O)[C@H](CCCNC(=N)N)NC(=O)[C@H](CC(C)C)NC(=O)CNC(=O)[C@H](Cc1c[nH]c2ccccc12)NC(=O)CNC(=O)[C@@H]1CSSC[C@@H]2NC(=O)[C@H](CC(=O)O)NC(=O)[C@H](CC(=O)O)NC(=O)[C@H](Cc3c[nH]cn3)NC(=O)[C@H]([C@@H](C)O)NC(=O)[C@H](CCCCN)NC(=O)[C@@H]3CSSC[C@H](NC(=O)[C@H]([C@@H](C)O)NC(=O)[C@H](CCC(N)=O)NC(=O)[C@H](CSSC[C@H](NC(=O)[C@@H](NC(=O)[C@@H]4CCCN4C(=O)[C@H](CC(=O)O)NC(=O)[C@H](C)NC(=O)[C@@H](N)Cc4c[nH]cn4)[C@@H](C)CC)C(=O)N[C@@H](CC(N)=O)C(=O)N[C@@H](CCCCN)C(=O)N4CCC[C@H]4C(=O)N3)NC(=O)[C@H](Cc3ccccc3)NC(=O)[C@H](Cc3c[nH]c4ccccc34)NC(=O)[C@H](C)NC(=O)CNC(=O)[C@H](CO)NC2=O)C(=O)N[C@@H](Cc2ccc(O)cc2)C(=O)N[C@@H](Cc2ccc(O)cc2)C(=O)N[C@@H](C)C(=O)N[C@@H](CC(N)=O)C(=O)N[C@@H](Cc2c[nH]c3ccccc23)C(=O)N[C@@H](CO)C(=O)N1)C(=O)N[C@@H](CC(=O)O)C(N)=O` [1A8.L5.1] (H-HADPICNKPCKTHDDCSGAWFCQTCYYANWSCGWGLRQID-NH2; disulfide 6-22, 10-25, 16-32) the IC50 was 1 ± 0.1 nM.

Molecule `CC[C@H](C)[C@H](NC(=O)[C@H](CCC(N)=O)NC(=O)[C@H](CCCNC(=N)N)NC(=O)[C@H](CC(C)C)NC(=O)CNC(=O)[C@H](Cc1c[nH]c2ccccc12)NC(=O)CNC(=O)[C@@H]1CSSC[C@@H]2NC(=O)[C@H](CC(=O)O)NC(=O)[C@H](CC(=O)O)NC(=O)[C@H](Cc3c[nH]cn3)NC(=O)[C@H]([C@@H](C)O)NC(=O)[C@H](CCCCN)NC(=O)[C@@H]3CSSC[C@H](NC(=O)[C@H]([C@@H](C)O)NC(=O)[C@H](CCC(N)=O)NC(=O)[C@H](CSSC[C@H](NC(=O)[C@@H](NC(=O)[C@@H]4CCCN4C(=O)[C@H](CC(=O)O)NC(=O)[C@H](C)NC(=O)[C@@H](N)Cc4c[nH]cn4)[C@@H](C)CC)C(=O)N[C@@H](CC(N)=O)C(=O)N[C@@H](CCCCN)C(=O)N4CCC[C@H]4C(=O)N3)NC(=O)[C@H](Cc3ccccc3)NC(=O)[C@H](Cc3c[nH]c4ccccc34)NC(=O)[C@H](C)NC(=O)CNC(=O)[C@H](CO)NC2=O)C(=O)N[C@@H](Cc2ccc(O)cc2)C(=O)N[C@@H](Cc2ccc(O)cc2)C(=O)N[C@@H](C)C(=O)N[C@@H](CO)C(=O)N[C@@H](Cc2c[nH]c3ccccc23)C(=O)N[C@@H](CO)C(=O)N1)C(=O)N[C@@H](CC(=O)O)C(N)=O` [1A8.L5.2] (H-HADPICNKPCKTHDDCSGAWFCQTCYYASWSCGWGLRQID-NH2; disulfide 6-22, 10-25, 16-32) has an IC50 of 2 ± 0.2 nM.

`CC[C@H](C)[C@H](NC(=O)[C@H](CCC(N)=O)NC(=O)[C@H](CCCNC(=N)N)NC(=O)[C@H](CC(C)C)NC(=O)CNC(=O)[C@H](Cc1c[nH]c2ccccc12)NC(=O)CNC(=O)[C@@H]1CSSC[C@@H]2NC(=O)[C@H](CC(=O)O)NC(=O)[C@H](CC(=O)O)NC(=O)[C@H](Cc3c[nH]cn3)NC(=O)[C@H]([C@@H](C)O)NC(=O)[C@H](CCCCN)NC(=O)[C@@H]3CSSC[C@H](NC(=O)[C@H]([C@@H](C)O)NC(=O)[C@H](CCC(N)=O)NC(=O)[C@H](CSSC[C@H](NC(=O)[C@@H](NC(=O)[C@@H]4CCCN4C(=O)[C@H](CC(=O)O)NC(=O)[C@H](C)NC(=O)[C@@H](N)Cc4c[nH]cn4)[C@@H](C)CC)C(=O)N[C@@H](CC(N)=O)C(=O)N[C@@H](CCCCN)C(=O)N4CCC[C@H]4C(=O)N3)NC(=O)[C@H](Cc3ccccc3)NC(=O)[C@H](Cc3c[nH]c4ccccc34)NC(=O)[C@H](C)NC(=O)CNC(=O)[C@H](CO)NC2=O)C(=O)N[C@@H](Cc2ccc(O)c(Cl)c2)C(=O)N[C@@H](Cc2ccc(O)cc2)C(=O)N[C@@H](C)C(=O)N[C@@H]([C@@H](C)O)C(=O)N[C@@H](Cc2c[nH]c3ccccc23)C(=O)N[C@@H](CO)C(=O)N1)C(=O)N[C@@H](CC(=O)O)C(N)=O` [1A8.Y26Y(3Cl)] (H-HADPICNKPCKTHDDCSGAWFCQTC[Tyr(3-Cl)]YATWSCGWGLRQID-NH2; disulfide 6-22, 10-25, 16-32) showed an IC50 of 2.4 ± 0.3 nM.
